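These data come from cells grown in 96-well plates and exposed to compound for 48 hours at five concentrations. GI50 is the concentration that inhibits growth by half.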 Calls of active or inactive are those of the source. Rule as the data show it: active = GI50 up to about 1.1 µM and inactive = higher. Bounds are passed on as bounds.

Some test systems named below: IGROV-1; PC-3; MDA-MB-435; OVCAR-5; DU-145; MCF7; SR; UACC-257; NCI-H226; HCT-15; A549; U-251; NCI-H460; MDA-N; MOLT-4; NCI-H23; SW-620; OVCAR-4; HOP-92; BT-549.
Assay in all cases: NCI-60 cell line screen, 48 h

Consider `O=C(NC(C(F)(F)F)(C(F)(F)F)P(=O)(Cc1ccccc1)Cc1ccccc1)C(C(F)(F)F)C(F)(F)F`, for which the GI50 in the test with IGROV-1 was 18.5 µM (inactive); with PC-3, 21.5 µM (inactive); in the test with MDA-MB-435, 17.4 µM (inactive); with OVCAR-5, 22.3 µM (inactive); with DU-145, 37.8 µM (inactive); in the test on MCF7, 12.2 µM (inactive). The GI50 in the test with SR is 18.7 µM (inactive); in the test on UACC-257, 22.6 µM (inactive); in the test with NCI-H226 it was 13.4 µM (inactive); in the test with HCT-15 it was 29.4 µM; in the test with A549 it was 25.9 µM (inactive); in the test on U-251, 17.6 µM (inactive). The GI50 was 27.7 µM (inactive) in the test on NCI-H460; 19.5 µM (inactive) with MDA-N; 16.9 µM (inactive) in the test with MOLT-4; 19.7 µM (inactive) in the test on NCI-H23; 44.4 µM (inactive) in the test with SW-620.
As for `COc1ccc2nc3c([N+](=O)[O-])ccc(NCCCN(C)C)c3c(N)c2c1`, the GI50 in the test with IGROV-1 was 1.21 µM (inactive); with PC-3, 1.4 µM (inactive); in the test on MDA-MB-435 it was 1.77 µM (inactive); in the test on OVCAR-5 it was 1.43 µM (inactive); in the test with OVCAR-4, 1.5 µM (inactive); in the test with DU-145, 1.67 µM (inactive). The GI50 with MCF7 is 1.15 µM (inactive); with SR, 0.721 µM (active); in the test on UACC-257 it was > 10 µM (inactive); in the test on HOP-92, 1.87 µM (inactive); in the test with NCI-H226, 1.99 µM (inactive); with HCT-15, 1.3 µM. Further, the GI50 with A549 was 1.49 µM (inactive); with U-251 it was 1.57 µM (inactive); in the test on NCI-H460, 1.21 µM (inactive); with MDA-N, 1.82 µM (inactive); in the test with MOLT-4 it was 0.276 µM (active); with NCI-H23, 1.99 µM (inactive). The GI50 with SW-620 is 0.405 µM (active).
For the molecule `Fc1ccc(Oc2nc3ccccc3nc2-c2ccccc2)cc1`, the GI50 in the test on IGROV-1 was > 100 µM (inactive); with PC-3, > 100 µM (inactive); in the test on MDA-MB-435, > 100 µM (inactive); in the test on OVCAR-5 it was > 100 µM (inactive); with BT-549, 95.3 µM (inactive); in the test with OVCAR-4 it was 36.5 µM (inactive). Also, the GI50 was > 100 µM (inactive) in the test with DU-145; > 100 µM (inactive) in the test on MCF7; 44.6 µM (inactive) with SR; > 100 µM (inactive) in the test with UACC-257; 76.9 µM (inactive) with HOP-92; > 100 µM (inactive) with NCI-H226. Moreover, the GI50 with HCT-15 is > 100 µM; in the test on U-251 it was 50.5 µM (inactive); in the test on NCI-H460, > 100 µM (inactive); in the test with MOLT-4 it was > 100 µM (inactive); with NCI-H23, 42.5 µM (inactive); in the test with SW-620, > 100 µM (inactive).
For the molecule `CS(=O)(=O)OCC1CCCCCCCCCCC12SCCCS2` (centres undefined), the GI50 with IGROV-1, in the test on PC-3, in the test with MDA-MB-435, with OVCAR-5, with OVCAR-4 and in the test on DU-145 was > 100 µM (inactive) in each case. Further, the GI50 is > 100 µM (inactive) in the test on MCF7; > 100 µM (inactive) with SR; > 100 µM (inactive) with UACC-257; > 100 µM (inactive) in the test with HOP-92; > 100 µM (inactive) in the test on NCI-H226; > 100 µM with HCT-15. Besides, the GI50 with A549, with U-251, in the test with NCI-H460, in the test with MDA-N, with MOLT-4 and in the test on NCI-H23 was > 100 µM (inactive) in each case. In addition, the GI50 in the test with SW-620 is > 100 µM (inactive).
For the molecule `CCCCP(CCCC)(CCCC)=C(C(=O)OC)C(C(=O)OC)=C1SC(C(=O)OC)=C(C(=O)OC)S1`, the GI50 is 11.6 µM (inactive) in the test with IGROV-1; 11.1 µM (inactive) in the test with PC-3; 14.8 µM (inactive) in the test on MDA-MB-435; 23 µM (inactive) in the test with OVCAR-5; 15.7 µM (inactive) with BT-549; 16.2 µM (inactive) with OVCAR-4. Besides, the GI50 was 40.8 µM (inactive) in the test on DU-145; 16.8 µM (inactive) in the test on MCF7; 34.8 µM (inactive) in the test on SR; 17.6 µM (inactive) in the test with UACC-257; 20 µM (inactive) with NCI-H226; 30.5 µM in the test with HCT-15. In addition, the GI50 in the test with A549 was 17.6 µM (inactive); in the test on U-251 it was 16 µM (inactive); with NCI-H460, 16 µM (inactive); with MOLT-4, 11.9 µM (inactive); in the test on NCI-H23, 17.5 µM (inactive); with SW-620 it was 23.4 µM (inactive).
As to `Nn1c(S)nnc1C12CC3CC(CC(C3)C1)C2`, the GI50 in the test on IGROV-1, in the test on PC-3, in the test on MDA-MB-435, in the test on OVCAR-5, with OVCAR-4 and in the test with DU-145 was > 100 µM (inactive) throughout. Besides, the GI50 is > 100 µM (inactive) with SR; > 100 µM (inactive) in the test with HOP-92; > 100 µM (inactive) with NCI-H226; > 100 µM in the test on HCT-15; > 100 µM (inactive) with A549; > 100 µM (inactive) in the test with U-251. In addition, the GI50 in the test on NCI-H460, in the test with MDA-N, in the test with MOLT-4, in the test with NCI-H23 and in the test with SW-620 was > 100 µM (inactive) in each case.
Regarding `CC(O[Si](c1ccccc1)(c1ccccc1)C(C)(C)C)[C@H](NC(=O)OC(C)(C)C)C(=O)O` (some centres undefined), the GI50 with IGROV-1 is 20.6 µM (inactive); in the test with PC-3 it was 26.6 µM (inactive); in the test on OVCAR-5 it was 75.3 µM (inactive); in the test on OVCAR-4, 26.4 µM (inactive); in the test with DU-145, > 10 µM (inactive); in the test with MCF7 it was 27.5 µM (inactive). Moreover, the GI50 is 28.2 µM (inactive) in the test with SR; 36.1 µM (inactive) in the test with UACC-257; 29.9 µM (inactive) with HOP-92; 29 µM in the test with HCT-15; 30.4 µM (inactive) with A549; 33.1 µM (inactive) with U-251. For the same molecule, the GI50 in the test on NCI-H460 is 55.6 µM (inactive); in the test with MDA-N, 38.7 µM (inactive); in the test with MOLT-4 it was 18.1 µM (inactive); in the test on NCI-H23, 33 µM (inactive); with SW-620 it was 29.4 µM (inactive).
For `Nc1ccccc1SCc1csc(-c2ccc(Cl)cc2)n1`, the GI50 in the test on IGROV-1 is 23 µM (inactive); in the test with PC-3, 19.8 µM (inactive); with MDA-MB-435, 18.2 µM (inactive); in the test on OVCAR-5, 39.1 µM (inactive); in the test with BT-549, 24.1 µM (inactive); with OVCAR-4, 21.8 µM (inactive). In addition, the GI50 is 34.5 µM (inactive) in the test on DU-145; 23.8 µM (inactive) in the test on MCF7; 6.61 µM (inactive) in the test on SR; 26.5 µM (inactive) with UACC-257; 21.9 µM (inactive) in the test on HOP-92; 20.7 µM (inactive) in the test on NCI-H226. The GI50 was 26.1 µM in the test with HCT-15; 24.5 µM (inactive) in the test on A549; 20.3 µM (inactive) in the test on U-251; 26.2 µM (inactive) in the test with NCI-H460; 4.39 µM (inactive) in the test on MOLT-4; 24.7 µM (inactive) in the test with NCI-H23. The GI50 in the test with SW-620 was 29.2 µM (inactive).

For the origin of these results see ChEMBL document CHEMBL1201862, “PubChem BioAssay data set” (2004).
